# Assay results published in patent US20240101546A1, “HETEROARYL-ACETYLENES, PHARMACEUTICAL COMPOSITIONS THEREOF, AND THEIR THERAPEUTIC APPLICATIONS” (Eubulus Biotherapeutics Inc., priority 2020, published 2024).
# Test system: hepatocellular carcinoma cell line Hub-7
# Assay: Cell proliferation assay, Hub-7 (CELL-TITER GLO)
# Assay type: cell-based
# Conditions: Hub-7 cells, 24 h incubation, cell viability by CELL-TITER GLO, top concentration 10 μM; read-out: EC50, Inhibition of Hub-7 Cell Proliferation
# Method: The activity of a compound was determined in a cell proliferation assay using the hepatocellular carcinoma cell line Hub-7. Cells (4,000 cells per well) were seeded in a 96-well tissue culture plate. After incubated overnight, the compound was added at predetermined concentrations, starting with 10 μM and followed by 3-fold serial dilution. After the cells were incubated for 24 h, cell viability was determined using a CELL-TITER GLO® assay. The CELL-TITER GLO® reagent (50 μL) was added to each well and the luminescence was measured by a multimode microplate reader after a brief period of shaking. EC50 values were determined for the compound. The results are summarized in Table 1, wherein A represents a value no greater than 200 nM, B represents a value greater than 200 nM but no greater than 1 μM, C represents a value greater than 1 μM but no greater than 5 μM, and D represents a value greater than 5 μM.
row,EC50 [µM],SMILES
1,≤ 0.2,"C#Cc1nc(NC(=O)N2CC(c3ccc(-c4cccc5ncsc45)cc3)C2)cs1 [Compound B2, 3-(4-(Benzo[d]thiazol-7-yl)phenyl)-N-(2-ethynylthiazol-4-yl)azetidine-1-carboxamide]"
2,0.2 to 1,"C#Cc1nc(NC(=O)N2CCc3cc(-c4cccc5ncsc45)ccc3C2)cs1 [Compound B3, 6-(Benzo[d]thiazol-7-yl)-N-(2-ethynylthiazol-4-yl)-3,4-dihydroisoquinoline-2(1H)-carboxamide]"
3,0.2 to 1,"C#Cc1nc(NC(=O)N2Cc3ccc(-c4cccc5ncsc45)cc3C2)cs1 [Compound B4, 5-(Benzo[d]thiazol-7-yl)-N-(2-ethynylthiazol-4-yl)isoindoline-2-carboxamide]"
4,≤ 0.2,"C#Cc1nc(NC(=O)N2CCN(c3ccc(-c4cccc5ncsc45)cc3)CC2)cs1 [Compound B5, 4-(4-(Benzo[d]thiazol-7-yl)phenyl)-N-(2-ethynylthiazol-4-yl)piperazine-1-carboxamide]"
5,≤ 0.2,"C#Cc1nc(NC(=O)N2CCC(c3ccc(-c4cccc5ncsc45)cc3)CC2)cs1 [Compound B6, 4-(4-(Benzo[d]thiazol-7-yl)phenyl)-N-(2-ethynylthiazol-4-yl)piperidine-1-carboxamide]"
6,0.2 to 1,"C#Cc1nc(C(=O)NCCc2ccc(-c3cc4ncsc4cc3F)cc2)cs1 [Compound C1, 2-Ethynyl-N-(4-(6-fluorobenzo[d]thiazol-5-yl)phenethyl)thiazole-4-carboxamide]"
7,≤ 0.2,"C#Cc1nc(C(=O)NCCc2ccc(-c3cccc4ncsc34)c(F)c2)cs1 [Compound C2, N-(4-(Benzo[d]thiazol-7-yl)-3-fluorophenethyl)-2-ethynylthiazole-4-carboxamide]"
8,0.2 to 1,"C#Cc1nc(C(=O)NCCc2ccc(-c3c(C(N)=O)ccc4ncsc34)cc2)cs1 [Compound C3, 7-(4-(2-(2-Ethynylthiazole-4-carboxamido)ethyl)phenyl)benzo[d]thiazole-6-carboxamide]"
9,≤ 0.2,"C#Cc1nc(C(=O)NCCc2ccc(-c3cccc(C(=O)NC)c3)cc2)cs1 [Compound C4, 2-Ethynyl-N-(2-(3′-(methylcarbamoyl)-[1,1′-biphenyl]-4-yl)ethyl)thiazole-4-carboxamide]"
10,≤ 0.2,"C#Cc1nc(C(=O)NCCc2ccc(-c3c(F)ccc4ncsc34)cc2)cs1 [Compound C5, 2-Ethynyl-N-(4-(6-fluorobenzo[d]thiazol-7-yl)phenethyl)thiazole-4-carboxamide]"
11,≤ 0.2,"C#Cc1nc(C(=O)NCCc2ccc(-c3ccccc3S(=O)(=O)N(C)C)cc2)cs1 [Compound C6, N-(2-(2′-(N,N-Dimethylsulfamoyl)-[1,1′-biphenyl]-4-yl)ethyl)-2-ethynylthiazole-4-carboxamide]"
12,0.2 to 1,"C#Cc1nc(C(=O)NCCc2ccc(-c3cc(C(N)=O)cc4ncsc34)cc2)cs1 [Compound C8, 7-(4-(2-(2-Ethynylthiazole-4-carboxamido)ethyl)phenyl)benzo[d]thiazole-5-carboxamide]"
13,0.2 to 1,"C#Cc1nc(C(=O)NCCc2ccc(-c3cc(C(=O)NC)cc4ncsc34)cc2)cs1 [Compound C9, 7-(4-(2-(2-Ethynylthiazole-4-carboxamido)ethyl)phenyl)-N-methylbenzo[d]-thiazole-5-carboxamide]"
14,≤ 0.2,"C#Cc1nc(C(=O)NCCc2ccc(-c3cc(C(=O)OC)cc4ncsc34)cc2)cs1 [Compound C10, Methyl 7-(4-(2-(2-ethynylthiazole-4-carboxamido)ethyl)phenyl)benzo[d]thiazole-5-carboxylate]"

# The remaining lines, values behind:
row,SMILES,EC50 [µM]
1,"C#Cc1nc(NC(=O)NCc2ccc(-c3cccc4c3S(=O)(=O)C=C4)cc2)cs1 [Compound A1, 1-(4-(1,1-Dioxidobenzo[b]thiophen-7-yl)benzyl)-3-(2-ethynylthiazol-4-yl)urea]",0.2 to 1
2,"C#Cc1nc(NC(=O)NCc2ccc(-c3cccc4c3S(=O)(=O)CC4O)cc2)cs1 (centres unmarked) [Compound A2, 1-(2-Ethynylthiazol-4-yl)-3-(4-(3-hydroxy-1,1-dioxido-2,3-dihydrobenzo[b]-thiophen-7-yl)benzyl)urea]",1 to 5
3,"C#Cc1nc(NC(=O)NCc2ccc(-c3cccc4c3S(=O)(=O)CC4=O)cc2)cs1 [Compound A3, 1-(4-(1,1-Dioxido-3-oxo-2,3-dihydrobenzo[b]thiophen-7-yl)benzyl)-3-(2-ethynyl-thiazol-4-yl)urea]",1 to 5
4,"C#Cc1nc(NC(=O)NCc2ccc(-c3cc4ncsc4c4c3CNC4=O)cc2)cs1 [Compound A4, 1-(2-Ethynylthiazol-4-yl)-3-(4-(8-oxo-7,8-dihydro-6H-thiazolo[5,4-e]isoindol-5-yl)benzyl)urea]",0.2 to 1
5,"C#Cc1nc(NC(=O)NCc2ccc(-c3cccc(N4CC[C@H](O)C4)c3)cc2)cs1 [Compound A5, (S)-1-(2-Ethynylthiazol-4-yl)-3-((3′-(3-hydroxypyrrolidin-1-yl)-[1,1′-biphenyl]-4-yl)methyl)urea]",0.2 to 1
6,"C#Cc1nc(NC(=O)NCc2ccc(-c3cccc4ncsc34)cc2)cs1 [Compound A6, 1-(4-(benzo[d]thiazol-7-yl)benzyl)-3-(2-ethynylthiazol-4-yl)urea]",≤ 0.2
7,"C#Cc1nc(NC(=O)NCc2ccc(-c3cccc(N4CCCC4)c3)cc2)cs1 [Compound A7, 1-(2-Ethynylthiazol-4-yl)-3-((3′-(pyrrolidin-1-yl)-[1,1′-biphenyl]-4-yl)methyl)urea]",≤ 0.2
8,"C#Cc1nc(NC(=O)NCc2ccc(-c3ccccc3)cc2)cs1 [Compound A8, 1-([1,1′-Biphenyl]-4-ylmethyl)-3-(2-ethynylthiazol-4-yl)urea]",≤ 0.2
9,"C#Cc1nc(NC(=O)NCc2ccc(-c3cccc4ncnc(O)c34)cc2)cs1 [Compound A9, 1-(2-Ethynylthiazol-4-yl)-3-(4-(4-hydroxyquinazolin-5-yl)benzyl)urea]",≤ 0.2
10,"C#Cc1nc(NC(=O)NCc2ccc(-c3cccc(C(N)=O)c3)cc2)cs1 [Compound A10, 4′-((3-(2-Ethynylthiazol-4-yl)ureido)methyl)-[1,1′-biphenyl]-3-carboxamide]",0.2 to 1
11,"C#Cc1nc(NC(=O)NCc2ccc(-c3cccc4ncn(C)c(=O)c34)cc2)cs1 [Compound A11, 1-(2-Ethynylthiazol-4-yl)-3-(4-(3-methyl-4-oxo-3,4-dihydroquinazolin-5-yl)-benzyl)urea]",0.2 to 1
12,"C#Cc1nc(NC(=O)NCc2ccc(-c3cc4ncsc4cc3F)cc2)cs1 [Compound A12, 1-(2-Ethynylthiazol-4-yl)-3-(4-(6-fluorobenzo[d]thiazol-5-yl)benzyl)urea]",0.2 to 1
13,"C#Cc1nc(NC(=O)NCc2ccc(-c3ccccc3S(=O)(=O)NC)cc2)cs1 [Compound A13, 4′-((3-(2-Ethynylthiazol-4-yl)ureido)methyl)-N-methyl-[1,1′-biphenyl]-2-sulfonamide]",0.2 to 1
14,"C#Cc1nc(NC(=O)NCc2ccc(-c3cccc(C(=O)NC)c3)cc2)cs1 [Compound A14, 4′-((3-(2-Ethynylthiazol-4-yl)ureido)methyl)-N-methyl-[1,1′-biphenyl]-3-carboxamide]",0.2 to 1
15,"C#Cc1nc(NC(=O)NCc2ccc(-c3c(C)ccc4c3cnn4C)cc2)cs1 [Compound A15, 1-(4-(1,5-Dimethyl-1H-indazol-4-yl)benzyl)-3-(2-ethynylthiazol-4-yl)urea]",≤ 0.2
16,"C#Cc1nc(NC(=O)NCc2ccc(-c3cccc4c3cnn4C)cc2)cs1 [Compound A16, 1-(2-Ethynylthiazol-4-yl)-3-(4-(1-methyl-1H-indazol-4-yl)benzyl)urea]",≤ 0.2
17,"C#Cc1nc(NC(=O)NCc2ccc(-c3c(C(=O)NC)ccc4ncsc34)cc2)cs1 [Compound A17, 7-(4-((3-(2-Ethynylthiazol-4-yl)ureido)methyl)phenyl)-N-methylbenzo[d]-thiazole-6-carboxamide]",1 to 5
18,"C#Cc1nc(NC(=O)NCc2ccc(-c3cccc4ccnc(O)c34)cc2)cs1 [Compound A18, 1-(2-Ethynylthiazol-4-yl)-3-(4-(1-hydroxyisoquinolin-8-yl)benzyl)urea]",0.2 to 1
19,"C#Cc1nc(NC(=O)NCc2ccc(-c3c(C(N)=O)ccc4ncsc34)cc2)cs1 [Compound A19, 7-(4-((3-(2-Ethynylthiazol-4-yl)ureido)methyl)phenyl)benzo[d]thiazole-6-carboxamide]",0.2 to 1
20,"C#Cc1nc(NC(=O)NCc2ccc(-c3cc(C(N)=O)cc4c3cnn4C)cc2)cs1 [Compound A20, 4-(4-((3-(2-Ethynylthiazol-4-yl)ureido)methyl)phenyl)-1-methyl-1H-indazole-6-carboxamide]",1 to 5
21,"C#Cc1nc(NC(=O)NCc2ccc(-c3cc(C(=O)NC)cc4c3cnn4C)cc2)cs1 [Compound A21, 4-(4-((3-(2-Ethynylthiazol-4-yl)ureido)methyl)phenyl)-N,1-dimethyl-1H-indazole-6-carboxamide]",0.2 to 1
22,"C#Cc1nc(NC(=O)NCc2ccc(-c3cc(C(=O)OC)cc4c3cnn4C)cc2)cs1 [Compound A22, Methyl 4-(4-((3-(2-ethynylthiazol-4-yl)ureido)methyl)phenyl)-1-methyl-1H-indazole-6-carboxylate]",≤ 0.2
23,"C#Cc1nc(NC(=O)NCc2ccc(-c3cc(C(=O)N(C)C)cc4c3cnn4C)cc2)cs1 [Compound A23, 4-(4-((3-(2-Ethynylthiazol-4-yl)ureido)methyl)phenyl)-N,N,1-trimethyl-1H-indazole-6-carboxamide]",0.2 to 1
24,"C#Cc1nc(NC(=O)N2CCCC2c2ccc(-c3cccc4ncsc34)cc2)cs1 (centres unmarked) [Compound B1, 2-(4-(Benzo[d]thiazol-7-yl)phenyl)-N-(2-ethynylthiazol-4-yl)pyrrolidine-1-carboxamide]",0.2 to 1
